# Results as given in patent US20190314311A1, “PHARMACEUTICAL COMPOSITION” (JAPAN SCIENCE AND TECHNOLOGY AGENCY, priority 2016, published 2019).
# Assays:
# Format in all cases: biochemical
# Thio-Q62 protein [1] = assay: protein aggregation turbidity assay; settings: 10 μM thio-Q62, PBS, 37° C.; arginine 100, 200 or 400 mM; proline 400 mM; Thio-Q62 alone = 100%
# Method: In the subsequent experiments, the protein aggregation turbidity assay was performed by the method described in Non-Patent Document 6. Specifically, it was performed as follows.
# (§1) A solution in which abnormally expanded proteins were dissolved in physiological saline phosphate (PBS) was used as a measurement sample. The solution was incubated at 37° C., and turbidity at 405 nm was measured every 24 hours using a microplate reader “Spectramax Plus plate reader” (Molecular Devices Inc.).
# As an abnormally expanded PolyQ protein, a Thioredoxin-Q62 (Thio-Q62) fusion protein consisting of Thioredoxin and a PolyQ stretch with 62 glutamines was used.
# As a control, Thio-Q62 protein alone was incubated in the same manner, and the turbidity was measured every 24 hours.
# As controls, a solution containing Thio-Q62 protein alone, and a solution containing Thio-Q62 protein and 400 mM proline were incubated in the same manner, respectively, and turbidity was measured after 5 days. […] The relative turbidity (%) of each solution was measured. The turbidity of the solution containing Thio-Q62 protein alone was set to 100%. In the figure, values represent means±SEM (n=3). “*” represents p<0.05, “***” represents p<0.001, “n.s.” represents not significant.
# Thio-Q62 protein [2] = assay: seed-induced polyQ aggregation reaction (turbidity); settings: 10 μM Thio-Q62 + seeds, 400 mM arginine or proline, 37° C., 7 days
# Method: as §1
# [3] = system: abnormally expanded PolyQ protein; assay: in vitro screening assay of abnormally expanded PolyQ protein aggregation by the turbidity method; settings: screening of PolyQ aggregation inhibiting compounds
# From the text: The present inventors established an in vitro screening assay system capable of conveniently evaluating the aggregation of abnormally expanded PolyQ protein by the turbidity method (U.S. Pat. No. 6,632,616).
compound,measurement,setting,value
"O=C(O)[C@@H]1CCCN1 [proline, reference compound]",relative turbidity after 5 days,Thio-Q62 protein [1],did not exert any anti-aggregation effect
same,seed-induced increase in turbidity,Thio-Q62 protein [2],the effects as observed with arginine was not obtained
same,PolyQ aggregation inhibitory activity,[3],no PolyQ aggregation-inhibitory effect
